Results: patent US6344457B1, “Amino acid derivatives inhibiting extracellular matrix metalloproteinase and TNF alpha release” (Chiesi Farmaceutici S.p.A., priority 1997, dated 2002)
Where two headings read alike, the source gives them in different places.

Assays:
[1] = Determination of bioavailability (blood levels, ex-vivo bioassay); format: in vivo; conditions: mouse, blood, 50 mg/kg, mice; for concentration at 24 h: read-out: blood level, P.o. method, 24 h
Procedure: The compounds of this invention were administered i.p. or p.o. between 1 and 50 mg/kg to mice: the blood levels then were determined by an ex-vivo bioassay according to Wang X. et al. (Cancer Res., 54, 4726-4728, 1994). The introduction of an OH group systematically increases the bioavailability of the products.

[2] = target: T1, collagenase of the human monocytic stock U937 (Homo sapiens, UniProt P03956); assay: Activity on collagenase; format: biochemical; conditions: radiomarked collagen, 27° C., 16 hours; read-out: C150 (nM) collagenase
T1 construct: the collagenase of the human monocytic stock U937; endogenous in cells; host or cells: U937 human monocytic cell line
T1 sequence (P03956 100-469): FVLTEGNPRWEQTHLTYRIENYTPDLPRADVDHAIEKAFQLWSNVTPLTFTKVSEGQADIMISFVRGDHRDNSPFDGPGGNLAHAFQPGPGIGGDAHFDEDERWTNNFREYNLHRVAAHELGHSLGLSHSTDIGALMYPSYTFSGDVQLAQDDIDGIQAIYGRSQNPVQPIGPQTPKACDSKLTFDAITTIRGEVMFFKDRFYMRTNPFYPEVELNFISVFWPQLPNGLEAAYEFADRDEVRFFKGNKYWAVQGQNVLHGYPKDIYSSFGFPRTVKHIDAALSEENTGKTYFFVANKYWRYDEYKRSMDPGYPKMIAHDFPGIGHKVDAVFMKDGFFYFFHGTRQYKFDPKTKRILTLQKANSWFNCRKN
Procedure: The collagenase was incubated at 27° C. for 16 hours with radiomarked collagen, and its activity was determined by the release of soluble peptides produced by the enzymatic breakdown of the collagen. The inhibiting concentration C150 for each compound was determined by measurement of the activity of the enzyme in the presence of the inhibitor at a concentration ranging between 10^−7 and 10^−12 M (the inhibitor is dissolved at a concentration of 10^−2 M in DMSO, then diluted successively by tenths in the buffer: Tris, HCl 150 mM, pH 7.5; NaCl 0.15 M; CaCl2 10 mM).

[3] = target: 92 kDa gelatinase of human origin (Homo sapiens, UniProt P14780); assay: Activity on gelatinase, radiomarked gelatin; format: biochemical; conditions: test performed with radiomarked gelatin; read-out: C150 (nM) gelatinase 92 kDa*
Chain of 92 kDa gelatinase of human origin (P14780 94-707): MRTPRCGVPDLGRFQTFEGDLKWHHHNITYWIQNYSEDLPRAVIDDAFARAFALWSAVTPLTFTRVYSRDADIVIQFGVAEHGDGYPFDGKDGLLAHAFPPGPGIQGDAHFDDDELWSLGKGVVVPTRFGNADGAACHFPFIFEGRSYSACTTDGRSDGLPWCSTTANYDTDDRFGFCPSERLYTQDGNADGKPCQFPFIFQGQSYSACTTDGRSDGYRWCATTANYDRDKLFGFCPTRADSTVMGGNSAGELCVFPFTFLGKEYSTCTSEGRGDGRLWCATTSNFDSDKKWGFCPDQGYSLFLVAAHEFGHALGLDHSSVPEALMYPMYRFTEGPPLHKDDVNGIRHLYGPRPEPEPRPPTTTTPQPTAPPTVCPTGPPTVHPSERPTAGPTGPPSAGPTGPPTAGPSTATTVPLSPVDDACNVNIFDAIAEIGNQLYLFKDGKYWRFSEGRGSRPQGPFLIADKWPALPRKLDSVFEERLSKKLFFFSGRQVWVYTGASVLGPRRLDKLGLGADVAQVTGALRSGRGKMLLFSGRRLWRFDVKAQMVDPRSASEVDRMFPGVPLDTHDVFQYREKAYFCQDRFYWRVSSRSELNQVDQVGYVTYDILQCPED
Procedure: The anti-gelatinase activity of the compounds according to the invention also was determined on 92 kDa or 72 kDa gelatinase of human origin, in accordance with the operating mode described by Harris, E. D., Krane, S. M.; (Biochem. Biophys. Acta, 258, 566-576, 1972).
The gelatinase was incubated at 37° C. for 16 hours with radiomarked gelatin, and its activity was determined by the release of the soluble peptides produced by the enzymatic breakdown of the gelatin. The inhibiting concentration C150 for each compound was determined by measurement of the activity of the enzyme in the presence of the inhibitor at a concentration ranging between 10^−7 and 10^−12 M (the inhibitor is dissolved in the same manner as for collagenase).

[4] = system: release of TNF from the peritoneal macrophages of mice stimulated by LPS; assay: Inhibition of the production of TNF in vitro; format: cell-based; conditions: Peritoneal macrophage; mouse peritoneal macrophages, LPS 100 ng/ml; read-out: C150 (μM) TNF
Procedure: The capacity of the compounds according to this invention to inhibit the release of TNF was determined from the peritoneal macrophages of mice stimulated by LPS (Lang, F., Robert, […], Petit, J. Y., J. Pharmacol. Exp. Ther., 275, 171-176, 1995). After an adhesion phase of 2 hours, the cells were treated for 1 hour with the compound to be tested at concentrations ranging between 10^-6 to 10^-9 M (the inhibitor is dissolved in DMSO at 10^-2 M, then at 5.10^-3 M in RPMI 1640 with 5% SVF, then diluted successively by tenths in the same medium), then stimulated by the addition of LPS (100 ng/ml in final concentration). Three hours later, the biological activity of the TNF in the supernatants was determined by a cytotoxicity test using the murine stock L929 in accordance with the operating procedure described by Band, G., Lin, […]., Evans, C. H. (Bioch. Biophys. Acta, 1134, 309-318, 1982). The pg/ml concentration of the TNF of the samples was determined from a murine αTNF standard curve, thus making it possible to define the inhibiting concentration […] of the compounds studied.

[5] = po, 50 mg/kg p.o., read-out: blood level, P.o. method, 10′
[6] = po, 50 mg/kg p.o., read-out: blood level, P.o. method, 20′
[7] = ip, 50 mg/kg i.p., read-out: blood level, I.p. method, 10′
[8] = ip, 50 mg/kg i.p., read-out: blood level, I.p. method, 20′
[9] = ip, 50 mg/kg i.p., read-out: blood level, I.p. method, 40′
[10] = po, 50 mg/kg p.o., read-out: blood level, P.o. method, 1 h

Row | SMILES | concentration at 10 min [1, 5] [ng/mL] | concentration at 20 min [1, 6] [ng/mL] | concentration at 10 min [1, 7] [ng/mL] | concentration at 20 min [1, 8] [ng/mL] | IC50 [2] [nM] | IC50 [3] [nM] | IC50 [4] [µM] | other results
1 | CNC(=O)C(Cc1ccc(Cl)c(Cl)c1)NC(=O)[C@](O)(CC(C)C)[C@H](C)C(=O)NO (some centres unmarked) | 600 | 300 | – | – | – | – | – | concentration at 40 min ([1]; po, 50 mg/kg p.o., read-out: blood level, P.o. method, 40′): 600 ng/mL
2 | CNC(=O)[C@@H](NC(=O)[C@H](CC(C)C)[C@H](O)C(=O)NO)C(C)C | 2200 | 4300 | 20000 | 9000 | – | – | – | concentration at 40 min [1, 9]: 47000 ng/mL; concentration at 30 min ([1]; po, 50 mg/kg p.o., 30′, read-out: blood level, P.o. method, 30′): 300 ng/mL; concentration at 1 h [1, 10]: 500 ng/mL; concentration at 24 h ([1]; po, 50 mg/kg p.o.): 170 ng/mL
3 | CNC(=O)[C@H](Cc1ccc(OC)cc1)NC(=O)C(O)(CC(C)C)[C@H](O)C(=O)NO (some centres unmarked) | 10000 | 9000 | 20000 | 0 | – | – | – | concentration at 40 min [1, 9]: 4000 ng/mL; concentration at 1 h [1, 10]: 9000 ng/mL; concentration at 24 h ([1]; po, 50 mg/kg p.o.): 9000 ng/mL
4 | CNC(=O)[C@@H](NC(=O)C(O)(CC(C)C)[C@H](C)C(=O)NO)C(C)(C)C (some centres unmarked) | – | – | 56000 | 22000 | – | – | – | concentration at 1 h ([1]; ip, 50 mg/kg i.p., read-out: blood level, I.p. method, 1 h): 3500 ng/mL
5 | CNC(=O)[C@H](Cc1ccc(OC)cc1)NC(=O)[C@](O)(CC(C)C)C(C)N(O)C=O (mixture of isomers) [Example 38, N-2(S)-[1(N-hydroxy-N-formyl)ethyl]2(S)-hydroxy4-methylpentanoyl-o-methyl L-tyrosine methylamide] | – | – | – | – | 130 | 17 | 3.2 | –
6 | CC(C)C[C@@](O)(C(=O)NC(Cc1ccc(Cl)cc1)C(=O)NCCN1CCOCC1)C(C)C(=O)NO (some centres unmarked) [Example 12b] | – | – | – | – | – | – | 1.6 | –
7 | CC(C)C[C@@](O)(C(=O)NC(Cc1ccc(Cl)cc1)C(=O)NCCN1CCOCC1)[C@H](C)C(=O)NO (some centres unmarked) [Example 12b] | – | – | – | – | 22 | 8 | – | –
8 | CNC(=O)[C@H](Cc1cccc(Cl)c1)NC(=O)[C@](O)(CC(C)C)[C@H](C)C(=O)NO [Example 22, N-2(S)-[1(S) hydroxycarbamoyl-1 ethyl]-2(S) hydroxy-4-methylpentanoyl L-3-chlorophenylalanine N-methylamide] | – | – | – | – | 2.4 | – | 0.13 | –
9 | CNC(=O)[C@H](Cc1c[nH]c2ccccc12)NC(=O)[C@](O)(CC(C)C)[C@H](C)C(=O)NO [Example 26, N-2-(S)[1(S) hydroxycarbamoyl-1 ethyl]-2(S)hydroxy-4-methylpentanoyl L-tryptophan N-methylamide] | – | – | – | – | – | 0.6 | 4.4 | –
10 | CC(C)C[C@@](O)(C(=O)N[C@@H](Cc1ccc(Cl)cc1)C(=O)NCCC#N)[C@H](C)C(=O)NO [Example 27, N-2(S)[1(S) hydroxycarbamoyl-1 ethyl]-2(S)hydroxy-4-methylpentanoyl L-4-chlorophenylalanine N-(2-cyano-1-ethyl) amide] | – | – | – | – | – | 1.7 | – | –
